Consider two compounds from US20260327195A1, “2-STYRYLBENZOTHIAZOLE DERIVATIVES AS ALPHA-SYNUCLEIN BINDING COMPOUNDS” (Eberhard Karls Universität Tübingen Medizinische Fakultät, priority 2023, published 2026).

Data set [1] has as its system αSYN. The conditions noted are these: result in words; cited from earlier work.
For data set [2], the system named is Aβ fibrils. The conditions noted are these: result in words; cited from earlier work.
Data set [3] in a line: In vivo dynamic PET/MR imaging, pharmacokinetic profile. The following applies: i.v. Details: species or system mouse (wild-type female C57BL/6J). On the procedure: The animal experiments were performed in compliance to the European directives on the protection and use of laboratory animals (Council Directive 2010/63/UE) and the German animal welfare act with approval from the local authorities (Regierungspräsidium Tuebingen, R3/19G). Three healthy wild-type female C57BL/6J mice (20.3±0.9 g; 9 weeks old) purchased from Charles River Laboratories (Sulzbach, Germany) were maintained in a vivarium on a 12:12 hour light dark cycle and were kept at a temperature of 22° C. with 40-60% humidity and free access to a standard diet and tap water.
The mice (n=3) were anaesthetized with 1.5% isoflurane evaporated in 100% oxygen at a flow rate of 0.8 L/min. Body temperature of 37° C. was maintained using a feedback temperature control unit. PET imaging studies were performed on Inveon dedicated microPET system (Inveon D-PET, Siemens, Knoxville, TN, USA). Five seconds after the start of PET acquisition, mice were injected intravenously with 9.9±0.6 MBq of [^18F]MFSB (Am=46.2±2.5 GBq/μmol at time of injection). The one-hour dynamic acquisitions were divided into 39 time frames (12×5 s, 6×10 s, 6×30 s, 5×60 s and 10×300 s). A 13-minute transmission measurement with a cobalt-57 point source was performed for attenuation correction. Subsequently, an anatomical magnetic resonance (MR) scan with a 7 Tesla MR scanner (ClinScan, Bruker BioSpin MRI GmbH, Ettlingen, Germany) using a rat whole-body volume coil and the Paravision software (v6.0.1, Bruker, Ettlingen, Germany) using a T2-weighted Turbo-RARE MRI sequence.
The PET image was reconstructed via the OSEM3D/SP-MAP reconstruction algorithm and coregistered to the whole-body MRI scan. Volumes of interest (VOIs) were hand-drawn for the relevant organs based on the MR anatomy in PMOD (PMOD Technologies, Faellanden, Switzerland, Version 4.2) and VOIs at different regions in the mouse brain were extracted using the atlas provided by PMOD to calculate the respective time-activity curves (TACs). Standardized uptake values (SUVs) were calculated as a ratio of the detected activity with injected activity and weight (SUV=(TAC (kBq/cc)/inj. activity (kBq))*weight (g)).

Data set [4] concerns the target αSYN pathology in MSA human brain slices (Homo sapiens, UniProt P37840). Nature of the data set: In vitro autoradiography on MSA human brain slices (cerebellum). The data set is classed as binding. On the procedure: (§1) Post-mortem human brain slices (10 μm thickness) were obtained from and the subject cases were analyzed by the Neurobiobank München (NBM, Munich, Germany), where tissues were collected on the basis of written informed consent according to the guidelines of the ethics committee of the Ludwig-Maximilians-University Munich, Germany (#345-13). The use of brain tissue samples in this study was approved by the ethics committee of the Faculty of Medicine at the University of Tuebingen (Ethics approval number: 813/2018BO2). Table 1 summarizes the information of the subjects from which samples were obtained and used in the experiment.
(§2) For autoradiography, brain slices were thawed for one hour before pre-incubation in BSA buffer for 25 minutes at room temperature. To determine total binding (TB), brain slices were incubated with the tracer (10 nM [^18F]PFSB, 10 nM [^18F]MFSB). Incubation of consecutive slices with the correspondent non-radioactive compounds (10 μM PFSB, […]) was performed to determine non-specific binding (NSB). The non-radioactive compounds were prepared by dissolving in DMSO to 10 mM, which yielded DMSO concentration of ≤0.1% in the final solution. Incubation was carried out for one hour at room temperature with subsequent washing in cold BSA buffer (three times for ten minutes) followed by three dipping in cold deionized water. After drying under UV lamps, brain slices were exposed to a storage phosphor screen (Molecular Dynamics, Caesarea, Israel) for 18 hours, which was then scanned in a phosphor imager (STORM 840, Molecular dynamics, Sunnyvale, CA, USA).
(§3) Quantitative data analysis was performed by drawing four regions of interest (ROIs) in relevant areas of the slice and one ROI next to it for background subtraction (ImageJ 1.8.0_172, National Institute of Health, Bethesda, Maryland, USA) (Schneider, C. A. et al., NIH Image to ImageJ: 25 years of image analysis; Nat Methods 2012, 9 (7), 671-5). Specific binding (SB) is obtained by subtracting NSB from TB. The SB disease/SB control ratio was calculated by dividing by the SB in diseased tissues with the respective SB in control tissues.

Data set [5] concerns the target T1, Aβ plaques in AD human brain slices (Homo sapiens, UniProt P05067).
T1 construct: mainly Abeta40/42 cut from APP) in post-mortem AD frontal cortex slices
Nature of the data set: In vitro autoradiography on AD human brain slices (frontal cortex). Type of data set: binding. The method, then:
as §1, §2, §3

For data set [6], the target named is αSYN pathology in PD human brain slices (Homo sapiens, UniProt P37840). The experiment in a line: In vitro autoradiography on PD human brain slices (frontal cortex). Type of data set: binding. The conditions noted are these: 10 nM tracer; NSB with 10 μM non-radioactive compound. On the procedure: as §1
For autoradiography, brain slices were thawed for one hour before pre-incubation in BSA buffer for 25 minutes at room temperature. To determine total binding (TB), brain slices were incubated with the tracer (10 nM [^18F]PFSB, 10 nM [^18F]MFSB). […]
Quantitative data analysis was performed by drawing four regions of interest (ROIs) in relevant areas of the slice and one ROI next to it for background subtraction (ImageJ 1.8.0_172, National Institute of Health, Bethesda, Maryland, USA) (Schneider, C. A. et al., NIH Image to ImageJ: 25 years of image analysis; Nat Methods 2012, 9 (7), 671-5). […] The SB disease/SB control ratio was calculated by dividing by the SB in diseased tissues with the respective SB in control tissues.

Setting [7] is: 10 nM tracer, NSB with 10 μM non-radioactive compound.

T1 sequence (P05067 672-713 limits assumed): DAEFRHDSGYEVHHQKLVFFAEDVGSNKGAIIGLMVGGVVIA

With `Cc1ccc2c(c1)sc(-c1ccc(N(C)C)cc1)[n+]2C` [thioflavin T], the “binding to αSYN” value in data set [1] was “does not bind to αSYN”. Besides, the “binding to Aβ fibrils” value in data set [2] is “known to bind to Aβ fibrils”.
Take `[18F]c1ccc2nc(/C=C/c3ccc(N4CCOCC4)cc3)sc2c1` [[^18F]MFSB]: the “crossing of the BBB” value in data set [3] (9.9±0.6 MBq, 60 min dynamic PET/MR) is on record as “crossing of the BBB was successful”. Further, the “clearance from lungs and liver” value in data set [3] (after first 2 min, result in words) is given as “fast to moderate clearance”. For the same compound, in data set [3] (first 2 min), the “uptake in liver (SUV)” value is “≈ 5 SUV” and the “uptake in lungs (SUV)” value is listed as “≈ 5 SUV”. Also, in data set [3] (result in words), the “clearance (brain), over 60 min” value is listed as “beginning of clearance was observed”; the kidney uptake entry is “Significant kidney uptake”; the “renal excretion, start” value is “renal excretion starting in the first few minutes”. In data set [4] (setting [7]), the “SB disease/SB control, MSA2/cerebellum ctrl” value was 1.27. Besides, the “selectivity towards αSYN over Aβ” value in data set [4] (autoradiography, result in words, FIG. 12) is “validated the selective binding to αSYN”. For the same compound, the “non-specific binding on MSA sections” value in data set [4] (result in words, hampered quantification of the disease/control SB ratio) is “with [^18F]MFSB was hampered by high NSB”. For the same compound, the “SB disease/SB control, AD/frontal cortex ctrl” value in data set [5] (setting [7]) was determined as 1.03. The “binding in AD brain regions with Aβ plaques / AD/frontal cortex SB ratio in words” value in data set [5] (result in words, FIG. 12) was “remained favorable”. The “SB disease/SB control, PD/frontal cortex ctrl” value in data set [6] is recorded as 1.18.
